Laboratory results: ChEMBL document CHEMBL4814079, “Structure-Activity Relationship for the Picolinamide Antibacterials that Selectively Target Clostridioides difficile” (ACS Med Chem Lett, 2021)
pIC50: −log10 of the molar value. ≈ marks a conversion by molar mass, not a printed value.

Assays:
Staphylococcus aureus = experiment: Antibacterial activity against […] Staphylococcus aureus ATCC 29213 assessed as reduction in bacterial growth measured after 48 hrs by CLSI based broth microdilution method; assay type: functional
Clostridioides difficile = experiment: Antibacterial activity against Clostridium difficile ATCC 43255 assessed as reduction in bacterial growth measured after 48 hrs by CLSI based broth microdilution method; assay type: functional
Enterococcus faecium = experiment: Antibacterial activity against Enterococcus faecium ATCC 19434 assessed as reduction in bacterial growth measured after 48 hrs by CLSI based broth microdilution method; assay type: functional
Fusobacterium nucleatum = experiment: Antibacterial activity against gut Fusobacterium nucleatum HM-992 assessed as reduction in bacterial growth measured after 48 hrs by CLSI based broth microdilution method; assay type: organism-based; settings: in vitro
[1] = Antibacterial activity against gut Limosilactobacillus-reuteri HM-102 assessed as reduction in bacterial growth measured after 48 hrs by CLSI based broth microdilution method
[2] = Drug excretion in CD1 mouse feces at 20 mg/kg, po measured upto 8 hrs by LC-MS/MS analysis; assay type: ADME, organism-based; settings: in vivo
Corynebacterium = experiment: Antibacterial activity against gut Corynebacterium HM-784 assessed as reduction in bacterial growth measured after 48 hrs by CLSI based broth microdilution method; assay type: organism-based
Eubacterium sp. = experiment: Antibacterial activity against gut Eubacterium sp. HM-178 assessed as reduction in bacterial growth measured after 48 hrs by CLSI based broth microdilution method; assay type: organism-based
Lactobacillus gasseri = experiment: Antibacterial activity against gut Lactobacillus gasseri HM-664 assessed as reduction in bacterial growth measured after 48 hrs by CLSI based broth microdilution method; assay type: organism-based; settings: in vitro
Veillonella = experiment: Antibacterial activity against gut Veillonella sp HM-49 assessed as reduction in bacterial growth measured after 48 hrs by CLSI based broth microdilution method; assay type: organism-based; settings: in vitro
Bifidobacterium longum = experiment: Antibacterial activity against gut Bifidobacterium longum HM-846 assessed as reduction in bacterial growth measured after 48 hrs by CLSI based broth microdilution method; assay type: organism-based
HeLa [3] = experiment: Cytotoxicity against human HeLa cells assessed as reduction in cell viability incubated for 16 hrs by XTT assay; assay type: cell-based
Bacteroides fragilis = experiment: Antibacterial activity against gut Bacteroides fragilis HM-709 assessed as reduction in bacterial growth measured after 48 hrs by CLSI based broth microdilution method; assay type: organism-based; settings: in vitro
[4] = Plasma concentration in CD1 mouse at 20 mg/kg, po measured upto 8 hrs by LC-MS/MS analysis; assay type: ADME, organism-based; settings: in vivo, BLD = below limit of detection
[5] = Ratio of drug excretion in CD-1 mouse feces to MIC for antibacterial activity against Clostridium difficile ATCC 43255; assay type: toxicity; settings: in vivo
[6] = Selectivity index, ratio of MIC of […] Staphylococcus aureus ATCC 29213 to MIC of Clostridium difficile ATCC 43255; assay type: functional
[7] = Plasma concentration in CD1 mouse at 10 mg/kg, po measured upto 8 hrs by LC-MS/MS analysis; assay type: ADME, organism-based; settings: in vivo, BLD = below limit of detection
[8] = Drug excretion in CD1 mouse feces at 10 mg/kg, po measured upto 8 hrs by LC-MS/MS analysis; assay type: ADME, organism-based; settings: in vivo
HeLa [9] = experiment: Cytotoxicity against human HeLa cells assessed as reduction in cell viability at 64 ug/ml incubated for 16 hrs by XTT assay; assay type: cell-based; settings: dose 64 µg/ml

SMILES | MIC (Staphylococcus aureus) [µg/mL] | MIC (Clostridioides difficile) [µg/mL] | MIC (Enterococcus faecium) [µg/mL] | MIC (Fusobacterium nucleatum) [µg/mL] | MIC [1] [µg/mL] | Drug excretion [2] [µg/g] | MIC (Corynebacterium) [µg/mL] | MIC (Eubacterium sp.) [µg/mL] | MIC (Lactobacillus gasseri) [µg/mL] | MIC (Veillonella) [µg/mL] | MIC (Bifidobacterium longum) [µg/mL] | pIC50 (HeLa [3]) | MIC (Bacteroides fragilis) [µg/mL] | Cp [4] | Ratio [5] | Ratio [6] | Cp [7] | Drug excretion [8] [µg/g] | IC50 (HeLa [3]) [µg/mL] | Activity (HeLa [9])
O=C(O)c1ccc2oc(NC(=O)c3cc(Oc4ccc(F)c(F)c4)ccn3)nc2c1 | 64 (≈ 156 µM) | 0.5 (≈ 1.22 µM) |  |  |  |  |  |  |  |  |  |  |  |  |  |  |  |  |  | 
O=C(Nc1ncco1)c1ccnc(-c2ccc(Cl)c(Cl)c2)c1 | 25 (≈ 74.8 µM) | 0.25 (≈ 0.748 µM) | 0.06 (≈ 0.18 µM) | 8 (≈ 23.9 µM) | 8 (≈ 23.9 µM) | 2.8 | 0.5 (≈ 1.5 µM) | > 16 | > 16 | 4 (≈ 12 µM) | > 16 | 4.10 | 1 (≈ 2.99 µM) | Bld | 11 |  |  |  |  | 
O=C(Nc1ncco1)c1cc(-c2ccc(Cl)c(Cl)c2)ccn1 | 128 (≈ 383 µM) | 0.125 (≈ 0.374 µM) | ≥ 128 | 8 (≈ 23.9 µM) | 4 (≈ 12 µM) |  | 16 (≈ 47.9 µM) | 8 (≈ 23.9 µM) | > 16 | 16 (≈ 47.9 µM) | > 16 |  | 4 (≈ 12 µM) |  | 6.6 | 1024 | Bld | 0.79 | 95.2 | 
COc1ccc(Oc2ccnc(C(=O)Nc3ncco3)c2)cc1 | ≥ 256 | 1 (≈ 3.21 µM) |  |  |  |  |  |  |  |  |  |  |  |  |  | > 256 |  |  |  | 
O=C(Nc1ncco1)c1cc(-c2ccc(F)c(Cl)c2)ccn1 | 128 (≈ 403 µM) | 0.25 (≈ 0.787 µM) |  |  |  |  |  |  |  |  |  |  |  |  |  | 512 |  |  |  | 
COC(=O)c1ccc2oc(NC(=O)c3cc(Oc4ccc(F)c(F)c4)ccn3)nc2c1 | 64 (≈ 150 µM) | 0.25 (≈ 0.588 µM) |  |  |  |  |  |  |  |  |  |  |  |  |  | 256 |  |  |  | 
CCc1c(Cl)c(O)c(Cl)c(O)c1C(=O)O[C@H]1[C@H](O)[C@H](OC)[C@H](OC/C2=C\C=C\C[C@H](O)/C(C)=C/[C@H](CC)[C@@H](O[C@@H]3OC(C)(C)[C@@H](OC(=O)C(C)C)[C@H](O)[C@@H]3O)/C(C)=C/C(C)=C/C[C@@H]([C@@H](C)O)OC2=O)O[C@@H]1C [FIDAXOMICIN] |  | 0.0625 (≈ 0.0591 µM) |  | < 0.0625 | > 32 |  | < 0.0625 | 16 (≈ 15.1 µM) | 2 (≈ 1.89 µM) | 8 (≈ 7.56 µM) | < 0.01 |  | > 32 |  |  |  |  |  |  | 
O=C(Nc1ncco1)c1cc(Oc2cccc(OC(F)(F)F)c2)ccn1 | 64 (≈ 175 µM) | 1 (≈ 2.74 µM) |  | 8 (≈ 21.9 µM) | 4 (≈ 11 µM) | 49 | > 16 | 8 (≈ 21.9 µM) | > 16 | 16 (≈ 43.8 µM) | 16 (≈ 43.8 µM) |  | 8 (≈ 21.9 µM) | Bld | 49 | 64 |  |  |  | 
O=C([O-])c1ccc2oc(NC(=O)c3cc(Oc4cccc(OC(F)(F)F)c4)ccn3)nc2c1.[Na+] | 16 | 0.125 |  | 4 | 4 | 13 | 8 | 16 | > 16 | 16 | 16 |  | 4 | Bld | 108 | 128 |  |  |  | 
O=C(Nc1ncco1)c1cc(-c2ccc(OC(F)(F)F)cc2)ccn1 | 125 (≈ 358 µM) | 0.25 (≈ 0.716 µM) |  |  |  |  |  |  |  |  |  |  |  |  |  | 512 |  |  |  | 
Cc1ncc([N+](=O)[O-])n1CCO [METRONIDAZOLE] |  |  |  | 2 (≈ 11.7 µM) | > 32 |  | > 32 | 1 (≈ 5.84 µM) | > 32 | 2 (≈ 11.7 µM) | 1 (≈ 5.84 µM) |  | 1 (≈ 5.84 µM) |  |  |  |  |  |  | 
O=C(Nc1ncco1)c1cc(Oc2cccc(F)c2)ccn1 | ≥ 256 | 1 (≈ 3.34 µM) |  |  |  | 2.4 |  |  |  |  |  |  |  | Bld | 2.4 | > 256 |  |  |  | 
CN[C@H](CC(C)C)C(=O)N[C@H]1C(=O)N[C@@H](CC(N)=O)C(=O)N[C@H]2C(=O)N[C@H]3C(=O)N[C@H](C(=O)N[C@H](C(=O)O)c4cc(O)cc(O)c4-c4cc3ccc4O)[C@H](O)c3ccc(c(Cl)c3)Oc3cc2cc(c3O[C@@H]2O[C@H](CO)[C@@H](O)[C@H](O)[C@H]2O[C@H]2C[C@](C)(N)[C@H](O)[C@H](C)O2)Oc2ccc(cc2Cl)[C@H]1O [VANCOMYCIN] |  |  |  | 0.25 (≈ 0.173 µM) | > 32 |  |  | 2 (≈ 1.38 µM) | 1 (≈ 0.69 µM) | > 32 | 0.25 (≈ 0.173 µM) |  | 16 (≈ 11 µM) |  |  |  |  |  |  | 
O=C(Nc1ncco1)c1cc(-c2cccc(F)c2)ccn1 | 64 (≈ 226 µM) | 0.5 (≈ 1.77 µM) |  |  |  |  |  |  |  |  |  |  |  |  |  | 128 |  |  |  | Non-Toxic
O=C(Nc1ncco1)c1ccnc(Oc2ccc(Cl)c(Cl)c2)c1 |  |  |  |  |  |  |  |  |  |  |  |  |  |  |  |  |  |  | 37 | 
